8 molecules from patent EP1149079B1, “TETRAHYDRO ISOQUINO LINEALKANOL DERIVATIVES AND PHARMACEUTICAL COMPOSITIONS CONTAINING SAME” (SK Corporation, priority 1999, dated 2000) can be followed below.

Structures are written as SMILES.

For experiment [1], the system named is mice. Briefly: Head-twitch test (5-HTP-induced head-twitch response). The conditions noted are these: oral, head twitches counted in a 2-minute period 30 min after 5-HTP 100 mg/kg ip, versus vehicle control. In kind it is in vivo. The protocol: The head-twitch response of mice is initiated by a variety of 5-HT mimetic drugs. The test was conducted in a manner similar to the procedure described by Heal, D.J., Philpot, J, O'Shaughnessy, K.M. and Davies, C.L.: The influence of central noradrenergic function on 5-HT-mediated head-twitch responses in mice: Possible implications for the actions of antidepressant drugs. Psychopharmacology 89: 414-420, 1986,
The head-twitch consisted of a characteristic rotation of the head, neck and shoulders of the mice. The test drug or vehicle was given by oral gavage. Thirty minutes later all animals were pretreated with carbidopa (25 mg/kg ip). Fifteen minutes following carbidopa administration, the mice were injected with 100 mg/kg ip of L-5-hydroxytryptophan (5-HTP). The animals were then left for 30 minutes before measurement of the head-twitch response in the following 2-minute period. For calculation of percent (%) response increase, the difference in drug head twitch number versus the control vehicle head twitch number is divided by the control head twitch and multiplied by 100.

The next experiment has as its system Rats. Briefly: Behavior Despair (Forced Swimming) test, rats dosed po. In kind it is in vivo. The conditions noted are these: reduction in immobility time versus vehicle; dose 60 mg/kg (po); one hour after dosing; 4-minute test period. Here is the method: (§1) Behavior Despair (Forced Swimming) test, a well known pharmacological screening method for depression, was conducted similar to the test described by Porsolt, R.D., Bertin, A. and Jalfre, M.: Behavior despair in mice: A preliminary screening test for antidepressants. Arch. Int. Pharmacodyn. Ther. 229: 327-336, 1977.
Rats were pre-swam for 10 minute the day before the test in 4000 mL glass cylinders containing water at 25°C. On the following day, rats were dosed orally (po) with either test compound or vehicle. One hour later each animal was placed in the glass cylinder and, following a 2-minute pretest, immobility was recorded for a 4-minute test period. For calculation of percent (%) reduction in immobility time, the difference in immobility time for control vehicle versus the drug is divided by the immobility time of the control vehicle and multiplied by 100.

The target of a further experiment is T1, MAO-A (Rattus norvegicus, UniProt P21396).
T1 construct: Rat liver mitochondrial membranes as the source of the enzyme; from tissue; host or cells: rat liver mitochondrial membranes
T1 sequence (P21396 1-526): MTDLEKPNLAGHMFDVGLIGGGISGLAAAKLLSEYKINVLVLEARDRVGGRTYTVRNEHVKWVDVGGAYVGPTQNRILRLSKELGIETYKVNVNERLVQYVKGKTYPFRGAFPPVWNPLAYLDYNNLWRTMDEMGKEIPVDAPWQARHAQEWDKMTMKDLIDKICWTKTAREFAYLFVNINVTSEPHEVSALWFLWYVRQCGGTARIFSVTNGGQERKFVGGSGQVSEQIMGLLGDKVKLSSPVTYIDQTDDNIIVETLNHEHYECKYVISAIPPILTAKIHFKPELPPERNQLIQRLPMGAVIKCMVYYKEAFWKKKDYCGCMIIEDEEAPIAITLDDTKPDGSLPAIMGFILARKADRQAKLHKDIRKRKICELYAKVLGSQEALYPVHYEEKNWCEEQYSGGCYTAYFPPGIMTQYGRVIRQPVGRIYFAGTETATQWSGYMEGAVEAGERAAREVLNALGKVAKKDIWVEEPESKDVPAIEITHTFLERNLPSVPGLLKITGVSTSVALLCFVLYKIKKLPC
As to the kind of experiment: MAO-A inhibiting activity in vitro, radioisotopic assay with [14C] serotonin. The format is biochemical. The conditions noted are these: Rat liver mitochondrial membranes, 300 nM deprenyl to block MAO-B, preincubation 60 minutes at 37°C. The protocol: The MAO-A activities in vitro were measured using Rat liver mitochondrial membranes as the source of the enzyme, according to modified method of S. Otsuka & Y. Kobayashi. A Radioisotopic Assay for Monoamine Oxidase Determinations in Human Plasma. Biochem. Pharmacol. 13: 995-1006 (1964)
Rat liver mitochondrial membranes is preincubated with drug or vehicle, and subtype selective blocker (300 nM deprenyl to block the B type of MAO) for 60 minutes at 37°C in 100 mM KPO4 (pH 7.2). [^14C] Serotonin ([…]) is then added and incubated for 10 minutes. The reaction is stopped by the addition of 0.5 ml of 2M citric acid. Radioactive product is extracted into a toluene/ethyl acetate fluor and compared to control values by scintillation spectrophotometry in order to ascertain any interactions of test compounds with MAO-A.

Experiment [2] relates to mice. As to the kind of experiment: Behavior Despair (Forced Swimming) test, mice dosed ip. In kind it is in vivo. The conditions noted are these: reduction in immobility time versus vehicle; dose 30 mg/kg (ip); one hour after dosing; 15-minute test period. The protocol: as §1
Mice were dosed intraperitoneally (ip) with either test compound or vehicle. One hour later each animal was placed in a 1500 mL glass beaker containing water at room temperature. Mice were kept in the water for a period of 15 minutes and the duration of immobility observed within the 15-minute test period was recorded. A mouse was judged to be immobile if it floated motionlessly in the water making only those movements necessary to keep its head above the water. For calculation of percent (%) reduction in immobility time, the difference in immobility time for control vehicle versus the drug is divided by the immobility time of the control vehicle and multiplied by 100.

As for `NC(=O)OCC1Cc2ccccc2CN1` (racemic) [Example 5, (RS)-3-Carbamoyloxymethyl-1,2,3,4-tetrahydroisoquinoline], in the experiment with mice [1] (dose 3 mg/kg), the “% Response Increase” value is 144%.
As usually defined, the inhibition is the share of the control response that was lost under treatment. Take `NC(=O)OC[C@@H]1Cc2ccccc2CN1` [Example 3, (S)-3-Carbamoyloxymethyl-1,2,3,4-tetrahydroisoquinoline]: the “% Response Increase” value in the experiment on mice [1] (dose 1 mg/kg) amounted to 238%. Further, the “% Reduction” value with Rats worked out at 83%. Besides, testing at 10 µM at MAO-A gave an inhibition of 97.7%.
Regarding `NC(=O)OC[C@H]1Cc2ccccc2CN1` [Example 4, (R)-3-Carbamoyloxymethyl-1,2,3,4-tetrahydroisoquinoline], in the experiment with mice [1] (dose 15 mg/kg), the “% Response Increase” value was 258%. The inhibition at 10 µM at MAO-A worked out at 63.9%.
As for `CN1Cc2ccccc2C[C@H]1COC(N)=O` [Example 8, (S)-3-Carbamoyloxymethyl-N-methyl-1,2,3,4-tetrahydroisoquinoline], the “% Response Increase” value in the experiment with mice [1] (dose 1 mg/kg) was 77%.
In the case of `NC(=S)OCC1Cc2ccccc2CN1` (centres unmarked) [Example 14, 3-Thiocarbamoyloxymethyl-1,2,3,4-tetrahydroisoquinoline], the “% Response Increase” value in the experiment with mice [1] (dose 8 mg/kg) is recorded as 42%.
`CNC(=S)OC[C@@H]1Cc2ccccc2CN1` [Example 16, (S)-3-(N-Methylthiocarbamoyloxymethyl)-1,2,3,4-tetrahydroisoquinoline]: in the experiment with mice [2], the “% Reduction” value amounted to 56%.
Regarding `CNC(=S)OC[C@@H]1Cc2ccccc2CN1C(=O)Nc1ccccc1` [Example 17, (S)-3-(N-Methyl-thiocarbamoyloxymethyl)-N-(anilinocarbonyl)-1,2,3,4-tetrahydroisoquinoline], the “% Reduction” value in the experiment on mice [2] stood at 46%.
Regarding `CNC(=S)OC[C@@H]1Cc2ccccc2CN1C` [Example 18, (S)-3-(N-Methylthiocarbamoyloxymethyl)-N-methyl-1,2,3,4-tetrahydroisoquinoline], in the experiment with mice [2], the “% Reduction” value turned out to be 33%.
